The test relates to c-MYC G4 DNA (Pu27) (DNA, G4) TGAGGGTGGGTAGGGTGGGTAA
The test can be described thus: UV-Vis absorbance titration. The conditions noted are these: 100 mM K+ (KCl); 10 mM Tris-HCl pH 7.4, 1 mM EDTA, 25 °C; 5 µM DNA, 0-20 µM EGCG; no Kd determined.

As to `O=C(O[C@@H]1Cc2c(O)cc(O)cc2O[C@@H]1c1cc(O)c(O)c(O)c1)c1cc(O)c(O)c(O)c1`, the binding result is “yes”.

The values are drawn from publication PMC12114839 (2025).
